Results as given in paper PMC6916368, “Cell‐Based Optimization of Covalent Reversible Ketoamide Inhibitors Bridging the Unprimed to the Primed Site of the Proteasome β5 Subunit” (Chemmedchem, 2019).
Numbered stars: 1 amine (or outer) side, 2 acyl side, 3 side chain; on linkers, the order of the positions; unused ones are H or OH. Peptide text beside a SMILES is read from it. * marks the point of attachment. AMC = Cc1cc(=O)oc2cc(N*)ccc12; Suc = O=C(CCC(=O)[*:2])[*:1]; Cbz = O=C(OCc1ccccc1)*; OtBu = CC(C)(C)O*

Experiments:
[1] = system: proteasome in MV4‐11 cells; test: Cellular conversion of fluorogenic proteasome substrates (assay validation); format: cell-based
Protocol: First, we benchmarked the fluorogenic substrate 30 towards the standard substrate 31 (Suc‐LLVY‐AMC) using varying substrate concentrations and cell numbers of MV4‐11 cells (Figure 5b). The highest substrate conversion was detected using 100 μM 30 in 50.000 cells (135 rfu/min) in MV4‐11 cells and was converted ∼4 times faster than 31 (33.3 rfu/min). There was an increase of differences in conversion rates with smaller number of cells (10.000 cells, 100 μM substrate: 10‐fold conversion) and lower substrate concentration (50.000 cells, 25 μM substrate: 15‐fold conversion).
In‐cell determination of proteasome IC 50. […] Inhibitors were serially diluted in RPMI‐1640 medium as 10‐fold stocks, added to cells giving final concentrations and incubated for 0 h–13 h at 37 °C and 5 % CO2 (Figure S5–S8). Substrate was added to give a final concentration of 30 μM and substrate conversion was detected by fluorescence measurement over 100 min (assay validation) or 60 min (inhibition assays) using a Tecan M1000 microplate reader. Rate of fluorescence change over time was calculated, rates for negative (no‐cell) control was subtracted and normalized to positive control (no inhibitor). Dose‐response curves were fitted to the equation “Y=100/(1+10^((L°^gIC50−X)*HillSl°^pe))” using GraphPad Prism 7.02 (SI chapter 2b, Figure S2–S4).

[2] = system: Danio rerio embryos; test: Danio rerio escape response (neurotoxicity) assay, dechorionated embryos; format: in vivo; settings: for C-Bend Amplitude, Difference between means / C-Bend duration, Difference between means / Number of movements per 100 ms, Difference between means / Number of total movements, Difference between means: versus control
Protocol: Danio rerio escape response assay. 24 hours past fertilization embryos were dechorionated and transferred into 96‐well plates containing 198 μL of E3 media at 26 °C. […] Incubation times were 24 h, 48 h and 72 h. Survival of the embryos was determined by visual analysis of heart‐beat. For recording the touch evoked escape response, embryos were transferred to a microscopy slide with cavity that is placed on a SL‐300 LED Soft Light (Dörr, Neu‐Ulm, Germany) under a MotionBlitz EoSens mini1‐1 MC1370 high speed camera (Mikrotron, Unterschleißheim, Germany, Figure S18). An escape response was triggered by a touch stimulus at the trunk of embryos using a small sewing needle, which is slightly blunted. For each embryo, a maximum of 50 stimuli was applied. […] No escape response was determined if only one embryo was alive at 96 hpf. Movement was recorded at 96 hpf at 500 frames per second for 3 seconds using the MotionBlitzDirector 2 software. Determination of the amplitude α defined by the body angle spanned between the head, yolk and tail using a MATLAB‐based software tool and plotted using GraphPad Prism 7.02.

[3] = biological target: T1, β2c subunit of isolated human 20S proteasome (Homo sapiens, UniProt Q99436); test: Proteasome inhibition assay (20 S Proteasome Assay Kit, Bz‐VGR‐AMC); format: biochemical; settings: c = 1 µM, n=1; read-out: Inhibition cCP β2
T1 construct: purchased Enzo Life Sciences
Protocol: (§1) Proteasome inhibition assay. Bortezomib (Selleckchem) and carfilzomib (MedChemExpress) were purchased and used without further purification. The 20 S Proteasome Assay Kit for Drug Discovery was used according to the supplier's protocol using Suc‐LLVY‐AMC (β5), Bz‐VGR‐AMC (β2) or Z‐LLE‐AMC (β1) as substrates (Enzo Life Sciences). Single point measurements of residual activity of proteasome activity were performed at a final concentration of 100 nM (n=3, β5c, β5i) or 1 μM (n=1, β1c, β2c, β5c, β5i, SI chapter 2a, Table S1). […] Inhibitors were prepared in 2‐fold concentration (cfinal=100 nM) and added to proteasomes (mfinal=200 ng/well). After 30 min incubation, substrate was added (cfinal=100 μM), incubated for 60 minutes and fluorescence was read using a Tecan M1000 microplate reader. Dose‐response curves were fitted to the equation Y=100/(1+10^((L°^gIC50−X)*HillSl°^pe)) using GraphPad Prism 7.02. IC50 values were determined from technical duplicates as mean value of three independent experiments.

[4] = system: Danio rerio embryos; test: Danio rerio embryo toxicity assay (not dechorionated); format: in vivo
Protocol: Danio rerio embryo toxicity assay. Fish keeping protocols are approved by the Darmstadt administrative authority and documented. All fish were treated humanely. […] Embryos were decollated into separate wells containing a total volume of 200 μL and the inhibitor at the given concentration.

[5] = system: MV4‐11 cells; test: Cell viability endpoint assay (Celltiter Blue, 72 h); format: cell-based; settings: Homo sapiens, MV4-11, mean±SD from two independent experiments
Protocol: Cell lines. MV4‐11 (ACC 102), Jurkat (ACC 282) and THP‐1 (ACC 16) cells were obtained from DSMZ and maintained at 37 °C and 5 % CO2 at densities between 0.2–1×10^6 cells per mL in RMPI‐1640 medium supplemented with 10 % FBS, L‐glutamine (2 mM) and penicillin/streptomycin.
Cell viability endpoint assay. For the determination of cytotoxicity of proteasome inhibitors 50.000 cells per well were plated in 90 μl RPMI‐1640 medium supplemented with 0.1 % FBS and incubated overnight at 37 °C and 5 % CO2. Inhibitors were serially diluted in RPMI‐1640 medium as 10‐fold stocks and added to cells giving the final concentration (1 nM to 10 μM, Figure S2–S4) and incubated for 72 h at 37 °C and 5 % CO2. Cell viability was determined using the Celltiter Blue assay (Promega) by adding 20 μl of reagent, incubation for 120 minutes at 37 °C and 5 % CO2 and fluorescent read‐out using a Tecan M1000 microplate reader. Dose‐response curves were fitted to the equation “Y=Bottom+(Top‐Bottom)/(1+10^(X−L°^gIC50))” using GraphPad Prism 7.02. IC50 values are determined from technical triplicates as mean value of two independent experiments. Standard deviations (Table S1) as well as dose response curves (SI chapter 2b) are given in the supplementary information.

[6] = biological target: T2, β5i subunit of isolated human 20S proteasome (Homo sapiens, UniProt P28062); test: Proteasome inhibition assay (20 S Proteasome Assay Kit, Suc‐LLVY‐AMC); format: biochemical
T2 construct: purchased Enzo Life Sciences
Protocol: as §1, with “Bortezomib (Selleckchem) and carfilzomib (MedChemExpress) were purchased and used without further purification.” left out, “Dose‐response curves were fitted to the equation Y=100/(1+10^((L°^gIC50−X)*HillSl°^pe)) using GraphPad Prism 7.02.” left out

[7] = biological target: T3, β5c subunit of isolated human 20S proteasome (Homo sapiens, UniProt P28074); test: as above; format: biochemical
T3 construct: purchased Enzo Life Sciences
Protocol: as §1, with “Bortezomib (Selleckchem) and carfilzomib (MedChemExpress) were purchased and used without further purification.” left out, “Dose‐response curves were fitted to the equation Y=100/(1+10^((L°^gIC50−X)*HillSl°^pe)) using GraphPad Prism 7.02.” left out

[8] = biological target: T4, β1c subunit of isolated human 20S proteasome (Homo sapiens, UniProt P28072); test: Proteasome inhibition assay (20 S Proteasome Assay Kit, Z‐LLE‐AMC); format: biochemical; settings: c = 1 µM, n=1; read-out: Inhibition cCP β1
T4 construct: purchased Enzo Life Sciences
Protocol: as §1, with “Bortezomib (Selleckchem) and carfilzomib (MedChemExpress) were purchased and used without further purification.” left out, “Dose‐response curves were fitted to the equation Y=100/(1+10^((L°^gIC50−X)*HillSl°^pe)) using GraphPad Prism 7.02.” left out

[9] = 100 μM substrate, 50.000 MV4‐11 cells
[10] = 25 μM, 24 h, listed as bortezomib
[11] = 25 μM, 48 h, listed as bortezomib
[12] = 50 μM, 24 h, listed as bortezomib

Structure (SMILES): Cc1cc(=O)oc2cc(NC(=O)[C@H](C)NC(=O)[C@H](CC(=O)OC(C)(C)C)NC(=O)[C@H](CC(C)C)NC(=O)OCc3ccccc3)ccc12 [Compound 30, Z‐LD(OtBu)A‐AMC] (Cbz-Leu-Asp(OtBu)-Ala-{AMC})
- conversion of 30 relative to 31 [1, 9]: ~4 times
- substrate conversion [1, 9]: 135 rfu/min
- conversion of 30 relative to 31 ([1]; 10.000 cells, 100 μM substrate): 10 fold
- conversion of 30 relative to 31 ([1]; 50.000 cells, 25 μM substrate): 15 fold

Structure (SMILES): Cc1cc(=O)oc2cc(NC(=O)[C@H](Cc3ccc(O)cc3)NC(=O)[C@@H](NC(=O)[C@H](CC(C)C)NC(=O)[C@H](CC(C)C)NC(=O)CCC(=O)O)C(C)C)ccc12 [Compound 31, Suc‐LLVY‐AMC] (Suc-LLVY-{AMC})
- substrate conversion [1, 9]: 33.3 rfu/min

Structure (SMILES): CC(C)C[C@H](NC(=O)[C@H](Cc1ccccc1)NC(=O)c1cnccn1)B(O)O [Bortezomib 1, Bortezomib, reference compound]
- Reflex Duration ([2]; 25 µM, 24 h): 540,2 ± 136,6 ms
- mean reflexes per stimuli ([2]; 25 µM, 24 h): 8%
- C-Bend Amplitude ([2]; 25 μM, 24 h, listed as 1): 131,6 ± 21,3 °
- C-Bend Duration ([2]; 25 μM, 24 h, listed as 1): 32,67 ± 6,489 ms
- Number of movements ([2]; 25 μM, 24 h, listed as 1): 11,56 ± 3,33
- Number of movements per 100 ms ([2]; 25 μM, 24 h, listed as 1): 1,916 ± 0,3504
- C-Bend Amplitude [2, 10]: 131.6±21.3 °
- C-Bend Duration [2, 10]: 32.7 ± 6.5 ms
- Number of movements per 100 ms [2, 10]: 1.92±0.35
- C-Bend Amplitude, Difference between means ([2]; 25 µM, 24 h): 2,556 ± 25,09
- C-Bend duration, Difference between means ([2]; 25 µM, 24 h): 13 ± 6,633
- Number of movements per 100 ms, Difference between means ([2]; 25 µM, 24 h): -1,559 ± 0,4739
- Reflex Duration ([2]; 25 µM, 48 h): 289,3 ± 198,9 ms
- mean reflexes per stimuli ([2]; 25 µM, 48 h): 2%
- C-Bend Amplitude ([2]; 25 μM, 48 h, listed as 1): 6,889 ± 5,549 °
- C-Bend Duration ([2]; 25 μM, 48 h, listed as 1): 8,222 ± 6,654 ms
- Number of movements ([2]; 25 μM, 48 h, listed as 1): 3,222 ± 2,259
- Number of movements per 100 ms ([2]; 25 μM, 48 h, listed as 1): 0,2435 ± 0,1615
- C-Bend Amplitude [2, 11]: 6.9±5.6 °
- Number of movements per 100 ms [2, 11]: 0.24±0.32
- C-Bend Amplitude, Difference between means ([2]; 25 µM, 48 h): -122,1 ± 14,37
- Number of movements per 100 ms, Difference between means ([2]; 25 µM, 48 h): -3,231 ± 0,3577
- Number of total movements, Difference between means ([2]; 25 µM, 48 h): -10,89 ± 3,622
- Number of movements per 100 ms ([2]; 50 μM, 24 h): 0±0
- Reflex Duration ([2]; 50 μM, 24 h): 0 ± 0 ms
- responses to touch stimuli ([2]; 50 μM, 24 h, 50 stimuli per embryo, 150 stimuli total): 0
- C-Bend Amplitude ([2]; 50 μM, 24 h, listed as 1): 0 ± 0 °
- C-Bend Duration ([2]; 50 μM, 24 h, listed as 1): 0 ± 0 ms
- Number of movements ([2]; 50 μM, 24 h, listed as 1): 0 ± 0
- C-Bend Amplitude [2, 12]: 0±0 °
- C-Bend Duration [2, 12]: 0 ± 0 ms
- Number of movements [2, 12]: 0
- C-Bend Amplitude, Difference between means ([2]; 50 µM, 24 h): -129 ± 13,26
- C-Bend duration, Difference between means ([2]; 50 µM, 24 h): -19,67 ± 1,374
- Number of movements per 100 ms, Difference between means ([2]; 50 µM, 24 h): -3,475 ± 0,3192
- Number of total movements, Difference between means ([2]; 50 µM, 24 h): -14,11 ± 2,831
- overall survival at low doses ([2]; dechorionated embryos): 92%
- Survived (embryos of 4) ([2]; dechorionated, 25 µM, 24 h): 4
- Survived (embryos of 4) ([2]; dechorionated, 25 µM, 48 h): 3
- Survived (embryos of 4) ([2]; dechorionated, 50 µM, 24 h): 4
- treated embryos dead ([2]; dechorionated, 50 μM 48 h to 72 h and 25 μM 72 h): 100%
- inhibition at 1 µM [3]: 5%
- Survival of embryos (not dechorionated) ([4]; 1 µM, 24 h): 100%
- Survival of embryos (not dechorionated) ([4]; 1 µM, 48 h): 100%
- Survival of embryos (not dechorionated) ([4]; 1 µM, 72 h): 100%
- Survival of embryos (not dechorionated) ([4]; 1 µM, 96 h): 100%
- Survival of embryos (not dechorionated) ([4]; 5 µM, 24 h): 100%
- Survival of embryos (not dechorionated) ([4]; 5 µM, 48 h): 100%
- Survival of embryos (not dechorionated) ([4]; 5 µM, 72 h): 100%
- Survival of embryos (not dechorionated) ([4]; 5 µM, 96 h): 80%
- Survival of embryos (not dechorionated) ([4]; 10 µM, 24 h): 100%
- Survival of embryos (not dechorionated) ([4]; 10 µM, 48 h): 100%
- Survival of embryos (not dechorionated) ([4]; 10 µM, 72 h): 100%
- Survival of embryos (not dechorionated) ([4]; 10 µM, 96 h): 100%
- Survival of embryos (not dechorionated) ([4]; 25 µM, 24 h): 100%
- Survival of embryos (not dechorionated) ([4]; 25 µM, 48 h): 100%
- Survival of embryos (not dechorionated) ([4]; 25 µM, 72 h): 100%
- Survival of embryos (not dechorionated) ([4]; 25 µM, 96 h): 80%
- IC50 [5]: 34 ± 5 nM
- inhibition at 1 µM ([6]; c = 1 µM, n=1, read-out: Inhibition iCP β5): 98%
- inhibition at 0.1 µM ([6]; c=100 nM, read-out: Rel. Inhibition β5i): 85%
- inhibition at 1 µM ([7]; c = 1 µM, n=1, read-out: Inhibition cCP β5): 98%
- inhibition at 0.1 µM ([7]; c=100 nM, read-out: Rel. Inhibition β5c): 89%
- inhibition at 1 µM [8]: 80%
